Columns and labels:
Assay type in all cases: in vivo, Human
[1] = test system: Panelists; experiment: Paired comparison taste test, flavored water
Procedure: Two sweetened water solutions were prepared and compared: Flavored Water with 9% Sucrose vs. Flavored Water with 6% Sucrose+2.3 ppm (6.49 μM) of 5-(neopentyloxy)-1H-benzo[c][1,2,6]thiadiazin-4-amino-2,2-dioxide.
Mixing procedures: Dissolve acid into the water using a Lightnin® blender, mix for 5 minutes. Add sugar and continue to mix until dissolved. Add flavors last. Dissolve Compound A into a 0.50% propylene glycol mixture, add last and mix for another 5 minutes. Procedure:
(§1) Panelists evaluated two sweetened water solutions in a paired comparison taste test procedure and were instructed to select the sweeter of the two samples. They perform a total of three paired comparison tests each containing the following samples: Flavored Water with 9% Sucrose vs. Flavored Water with 6% Sucrose+2.3 ppm (6.49 μM) 5-(neopentyloxy)-1H-benzo[c][1,2,6]thiadiazin-4-amino-2,2-dioxide.
Two sweetened water solutions were prepared and compared: Flavored Water with 9% Sucrose vs. Flavored Water with 6% Sucrose+2.44 ppm (6.49 μM) of 3-(4-amino-2,2-dioxide-1H-benzo[c][1,2,6]thiadiazin-5-yloxy)-2′,2′-dimethyl-N-propylpropanamide.
as §1, with “Sucrose+2.44” for “Sucrose+2.3”, “3-(4-amino-2,2-dioxide-1H-benzo[c][1,2,6]thiadiazin-5-yloxy)-2′,2′-dimethyl-N-propylpropanamide.” for “5-(neopentyloxy)-1H-benzo[c][1,2,6]thiadiazin-4-amino-2,2-dioxide.”

[2] = test system: Panelists; experiment: Paired comparison taste test, cola composition; conditions: for Sweetness comparison (conclusion): p>0.10; for Sample selected as sweeter by panelists, Total: vs Cola with 100% Sucrose, n = 39
Procedure: Cola compositions were prepared using the following ingredients and evaluated for sweetness and/or lingering taste.
The cola emulsion, above, contains the ingredients below:
Panelists evaluated two solutions in a paired comparison taste test procedure and were instructed to select the sweeter of the two samples.

[3] = test system: External panelists; experiment: Line scale (15-point sucrose equivalence) sensory test, Example 3A/3C, sucrose or LSB, pH 7.1; set-up: key to Average Sweetness / Average Bitterness: 15-point scale: 0 = 0% sucrose to 15 = 15% sucrose; references = 5
Procedure: (§2) Several types of sensory tests were used to determine the efficacy of 5-(neopentyloxy)-1H-benzo[c][1,2,6]thiadiazin-4-amino-2,2-dioxide in enhancing sweetness of sucrose. Two types of tests were conducted: • 1) Sensory scaling tests were performed using a 15-point percent sucrose equivalence scale for sweetness in order to evaluate sweetness enhancement 5-(neopentyloxy)-1H-benzo[c][1,2,6]thiadiazin-4-amino-2,2-dioxide in sucrose, or in fructose. • 2) Paired comparison tests (2-alternative forced choice difference tests) were used to determine sweetness equivalence for solutions of sucrose vs. 5-(neopentyloxy)-1H-benzo[c][1,2,6]thiadiazin-4-amino-2,2-dioxide or buffer vs. 5-(neopentyloxy)-1H-benzo[c][1,2,6]thiadiazin-4-amino-2,2-dioxide. Stimuli:
Tests were performed with sucrose or fructose. Sweetener was evaluated with and/or without 5-(neopentyloxy)-1H-benzo[c][1,2,6]thiadiazin-4-amino-2,2-dioxide at the appropriate concentration(s).
5-(Neopentyloxy)-1H-benzo[c][1,2,6]thiadiazin-4-amino-2,2-dioxide was prepared as a concentrated stock solution in ethanol to ensure dissolution of the compound. Therefore, all taste solutions contained 0.1% ethanol final concentration. Samples without compound also contained 0.1% ethanol. Low sodium phosphate buffer consists of 0.3 mM KCl, 0.5 mM Na2HPO4, and 0.175 mM KH2PO4.
In scaling test situations, the samples were rated on a 15-point scale for sweetness, ranging from 0=0% sucrose to 15=15% sucrose. To evaluate attributes other than sweetness, references are used for training and are prepared according to the table below. Note that each reference was given a score of 5 on the 15-point scale.
External panelists were used for the tests. The exact number of panelists is reported with test results. Subjects were instructed not to eat or drink anything (except water) for at least 1 hour prior to the test.
Panelists rinsed their mouths with water prior to starting any test. Samples were presented to panelists in a randomized, counterbalanced order. Panelists rinsed with water and had up to a 1 minute delay to clear the mouth of any tastes after each evaluation. Two replicates of each test were performed, unless otherwise noted.

[4] = test system: External panelists; experiment: Paired comparison test (2-alternative forced choice), Example 3B, sucrose; conditions: 9% sucrose chosen, vs 6% Sucrose + 10 ppm (35.29 μM) compound; n = 28
Procedure: as §2
Panelists performed 2 directional paired comparison tests to determine which sample was sweeter. The test compared the sweetness intensity of 9% sucrose to that of 6% sucrose+10 ppm (35.29 μM) 5-(neopentyloxy)-1H-benzo[c][…]thiadiazin-4-amino-2,2-dioxide. Panelists were also to comment on the difficulty of the test and if any off tastes were perceived. Samples were completely randomized.

CCCNC(=O)C(C)(C)COc1cccc2c1C(N)=NS(=O)(=O)N2 [3-(4-amino-2,2-dioxide-1H-benzo[c][1,2,6]thiadiazin-5-yloxy)-2′,2′-dimethyl-N-propylpropanamide]
Sample selected as sweeter by panelists, Total ([1]; Flavored Water with 6% Sucrose + 2.44 ppm (6.49 μM) compound chosen, vs 9% Sucrose, n = 42): 20
Sweetness comparison (conclusion) ([1]; Flavored Water with 6% Sucrose + 2.44 ppm (6.49 μM) compound vs 9% Sucrose, p>0.10): not significantly different in sweetness
Sweetness comparison (conclusion) ([2]; 60% sucrose cola + 3 ppm (8.47 μM) compound vs 100% sucrose cola): no significant difference in sweetness
Sweetness comparison (conclusion) ([2]; 66% sucrose cola + 3.19 ppm (8.47 μM) compound vs 100% sucrose cola): no significant difference in sweetness
Sample selected as sweeter by panelists, Total ([2]; Cola with 60% Sucrose + 3 ppm (8.47 μM) compound chosen): 18
Sample selected as sweeter by panelists, Total ([2]; Cola with 66% Sucrose + 3.19 ppm (8.47 μM) compound chosen): 22
Sweetness comparison (statement) ([2]; cola with reduced sucrose + 3 ppm or 3.19 ppm compound vs 100% sucrose cola): approximately the same sweetness

OC[C@H]1O[C@@](CO)(O[C@H]2O[C@H](CO)[C@@H](O)[C@H](O)[C@H]2O)[C@@H](O)[C@@H]1O [Sucrose, sucrose]
Average Sweetness ([3]; 2% Sucrose, Table 10, n = 14): 2.1
Average Bitterness ([3]; 2% Sucrose, Table 12, n = 14): 0.1
Average Sweetness ([3]; 4% Sucrose, Table 10, n = 14): 3.8
Average Bitterness ([3]; 4% Sucrose, Table 12, n = 14): 0.0
Average Sweetness ([3]; 6% Sucrose, Table 10, n = 14): 6.0
Average Sweetness ([3]; 6% Sucrose, Table 11, n = 14): 7.3
Average Bitterness ([3]; 6% Sucrose, Table 12, n = 14): 0.4
Average Bitterness ([3]; 6% Sucrose, Table 13, n = 14): 0.4
Average Bitterness ([3]; 6% Sucrose, pH 7.1, n = 32): 0.3
Average Sweetness ([3]; 6% Sucrose, pH 7.1, n = 32): 6.5
Average Sweetness ([3]; 8% Sucrose, Table 11, n = 14): 8.6
Average Bitterness ([3]; 8% Sucrose, Table 13, n = 14): 0.4
Average Bitterness ([3]; 8% Sucrose, pH 7.1, n = 32): 0.3
Average Sweetness ([3]; 8% Sucrose, pH 7.1, n = 32): 7.9
Average Sweetness ([3]; 9% Sucrose, Table 11, n = 14): 9.4
Average Bitterness ([3]; 9% Sucrose, Table 13, n = 14): 0.6
Average Bitterness ([3]; 9% Sucrose, pH 7.1, n = 32): 0.2
Average Sweetness ([3]; 9% Sucrose, pH 7.1, n = 32): 8.9
Average Sweetness ([3]; 10% Sucrose, Table 11, n = 14): 9.6
Average Bitterness ([3]; 10% Sucrose, Table 13, n = 14): 0.2
Average Bitterness ([3]; 10% Sucrose, pH 7.1, n = 32): 0.3
Average Sweetness ([3]; 10% Sucrose, pH 7.1, n = 32): 9.3
Sample selected as more sweet by panelists, Total [4]: 9

Source: patent publication US8609173B2, “Compositions comprising sweetness enhancers and methods of making them” (Senomyx Inc., priority 2008, dated 2013)
